Laboratory results taken from the kinase profiling compilation of Christmann-Franck et al. (2016).

Assays:
Experiment in all cases: KINOMEscan competition binding
Details in all cases: compound 10.0 µM
AKT2 (human) = AKT2 (human) (UniProt P31751)
[1] = tested on: BRAF (human), P15056 [V600E]
BRSK1 (human) = BRSK1 (human) (UniProt Q8TDC3)
CASK (human) = CASK (human) (UniProt O14936)
CDK7 (human) = CDK7 (human) (UniProt P50613)
CHUK (human) = CHUK (human) (UniProt O15111)
CLK3 (human) = CLK3 (human) (UniProt P49761)
DMPK (human) = DMPK (human) (UniProt Q09013)
DYRK1B (human) = DYRK1B (human) (UniProt Q9Y463)
GRK1 (human) = GRK1 (human) (UniProt Q15835)
IGF1R (human) = IGF1R (human) (UniProt P08069)
IKBKB (human) = IKBKB (human) (UniProt O14920)
INSR (human) = INSR (human) (UniProt P06213)
KDR (human) = KDR (human) (UniProt P35968)
[2] = tested on: KIT (human), P10721 [V559D/T670I]
LRRK2 (human) = LRRK2 (human) (UniProt Q5S007)
MAP2K1 (human) = MAP2K1 (human) (UniProt Q02750)
MAP3K13 (human) = MAP3K13 (human) (UniProt O43283)
MAP3K4 (human) = MAP3K4 (human) (UniProt Q9Y6R4)
MAPK10 (human) = MAPK10 (human) (UniProt P53779)
MAPK11 (human) = MAPK11 (human) (UniProt Q15759)
MARK3 (human) = MARK3 (human) (UniProt P27448)
MATK (human) = MATK (human) (UniProt P42679)
NEK1 (human) = NEK1 (human) (UniProt Q96PY6)
PAK2 (human) = PAK2 (human) (UniProt Q13177)
PDPK1 (human) = PDPK1 (human) (UniProt O15530)
PIK3C2B (human) = PIK3C2B (human) (UniProt O00750)
PIK3CA (human) = PIK3CA (human) (UniProt P42336)
PIM1 (human) = PIM1 (human) (UniProt P11309)
PIM2 (human) = PIM2 (human) (UniProt Q9P1W9)
PLK1 (human) = PLK1 (human) (UniProt P53350)
PRKACA (human) = PRKACA (human) (UniProt P17612)
RIOK2 (human) = RIOK2 (human) (UniProt Q9BVS4)
RPS6KA3 KD1 (human) = RPS6KA3 KD1 (human) (UniProt P51812)
RPS6KB1 (human) = RPS6KB1 (human) (UniProt P23443)
SGK1 (human) = SGK1 (human) (UniProt O00141)
STK11 (human) = STK11 (human) (UniProt Q15831)
STK39 (human) = STK39 (human) (UniProt Q9UEW8)
TEK (human) = TEK (human) (UniProt Q02763)
TGFBR1 (human) = TGFBR1 (human) (UniProt P36897)
TSSK1B (human) = TSSK1B (human) (UniProt Q9BXA7)

Sequence of MAPK10 (human) (P53779 whole entry, looked up): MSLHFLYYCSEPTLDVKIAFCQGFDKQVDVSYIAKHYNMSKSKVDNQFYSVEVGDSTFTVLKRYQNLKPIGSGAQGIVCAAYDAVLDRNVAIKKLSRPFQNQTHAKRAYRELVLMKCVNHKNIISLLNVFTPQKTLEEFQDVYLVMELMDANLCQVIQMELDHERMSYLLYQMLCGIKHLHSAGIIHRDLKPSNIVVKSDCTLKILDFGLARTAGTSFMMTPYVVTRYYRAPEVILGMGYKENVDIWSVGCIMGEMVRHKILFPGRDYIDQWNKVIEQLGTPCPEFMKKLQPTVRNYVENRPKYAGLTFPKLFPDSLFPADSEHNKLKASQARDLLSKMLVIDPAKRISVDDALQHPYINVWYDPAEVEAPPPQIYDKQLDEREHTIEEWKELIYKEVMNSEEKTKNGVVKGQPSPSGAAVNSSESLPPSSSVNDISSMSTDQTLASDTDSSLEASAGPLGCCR
Sequence of STK11 (human) (Q15831 whole entry, looked up): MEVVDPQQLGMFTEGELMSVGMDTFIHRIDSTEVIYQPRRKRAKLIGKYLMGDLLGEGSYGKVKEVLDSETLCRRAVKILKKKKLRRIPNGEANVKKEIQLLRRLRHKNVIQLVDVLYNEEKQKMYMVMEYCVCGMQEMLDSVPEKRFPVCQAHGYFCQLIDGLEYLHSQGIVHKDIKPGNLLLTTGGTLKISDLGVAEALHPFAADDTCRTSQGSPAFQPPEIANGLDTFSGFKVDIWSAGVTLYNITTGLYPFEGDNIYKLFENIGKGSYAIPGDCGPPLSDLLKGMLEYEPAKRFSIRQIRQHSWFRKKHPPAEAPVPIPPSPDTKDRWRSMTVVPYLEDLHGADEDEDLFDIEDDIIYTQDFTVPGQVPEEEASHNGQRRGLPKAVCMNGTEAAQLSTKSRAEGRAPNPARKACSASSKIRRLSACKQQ
Sequence of BRAF (human), P15056 [V600E] (P15056 whole entry V600E, looked up): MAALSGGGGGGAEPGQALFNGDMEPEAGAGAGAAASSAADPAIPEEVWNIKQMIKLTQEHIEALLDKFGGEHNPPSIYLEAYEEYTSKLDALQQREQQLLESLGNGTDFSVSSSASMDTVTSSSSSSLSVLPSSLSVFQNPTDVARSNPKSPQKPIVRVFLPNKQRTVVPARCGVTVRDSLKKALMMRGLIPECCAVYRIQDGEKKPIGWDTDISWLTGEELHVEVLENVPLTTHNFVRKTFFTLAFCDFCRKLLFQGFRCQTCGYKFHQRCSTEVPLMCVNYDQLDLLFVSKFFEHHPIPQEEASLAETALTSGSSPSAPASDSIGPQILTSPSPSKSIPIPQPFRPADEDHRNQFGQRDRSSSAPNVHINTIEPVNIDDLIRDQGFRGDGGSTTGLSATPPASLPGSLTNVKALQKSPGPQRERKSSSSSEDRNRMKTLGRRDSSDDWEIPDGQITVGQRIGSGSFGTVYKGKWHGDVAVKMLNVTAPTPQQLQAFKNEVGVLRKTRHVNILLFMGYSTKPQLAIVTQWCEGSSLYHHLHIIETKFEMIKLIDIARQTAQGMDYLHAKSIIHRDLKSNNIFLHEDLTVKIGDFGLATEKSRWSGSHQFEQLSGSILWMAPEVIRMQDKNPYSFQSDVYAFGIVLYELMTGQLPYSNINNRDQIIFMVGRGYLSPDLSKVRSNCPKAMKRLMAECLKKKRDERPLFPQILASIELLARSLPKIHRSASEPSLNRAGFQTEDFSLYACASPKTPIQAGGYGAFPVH
Sequence of SGK1 (human) (O00141 whole entry, looked up): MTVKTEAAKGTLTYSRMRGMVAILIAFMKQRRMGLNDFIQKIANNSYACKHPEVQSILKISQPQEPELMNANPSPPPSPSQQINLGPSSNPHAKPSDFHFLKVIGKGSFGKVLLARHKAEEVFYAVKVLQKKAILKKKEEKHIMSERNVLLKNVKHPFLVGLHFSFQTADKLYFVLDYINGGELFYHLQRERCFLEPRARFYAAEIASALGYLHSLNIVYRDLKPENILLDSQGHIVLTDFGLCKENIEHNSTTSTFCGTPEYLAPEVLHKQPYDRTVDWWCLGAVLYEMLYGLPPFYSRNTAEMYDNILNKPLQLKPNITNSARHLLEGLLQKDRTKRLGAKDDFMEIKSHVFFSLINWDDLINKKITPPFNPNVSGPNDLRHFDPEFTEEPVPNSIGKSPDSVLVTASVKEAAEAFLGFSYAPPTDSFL
Sequence of RPS6KA3 KD1 (human) (P51812 whole entry, looked up): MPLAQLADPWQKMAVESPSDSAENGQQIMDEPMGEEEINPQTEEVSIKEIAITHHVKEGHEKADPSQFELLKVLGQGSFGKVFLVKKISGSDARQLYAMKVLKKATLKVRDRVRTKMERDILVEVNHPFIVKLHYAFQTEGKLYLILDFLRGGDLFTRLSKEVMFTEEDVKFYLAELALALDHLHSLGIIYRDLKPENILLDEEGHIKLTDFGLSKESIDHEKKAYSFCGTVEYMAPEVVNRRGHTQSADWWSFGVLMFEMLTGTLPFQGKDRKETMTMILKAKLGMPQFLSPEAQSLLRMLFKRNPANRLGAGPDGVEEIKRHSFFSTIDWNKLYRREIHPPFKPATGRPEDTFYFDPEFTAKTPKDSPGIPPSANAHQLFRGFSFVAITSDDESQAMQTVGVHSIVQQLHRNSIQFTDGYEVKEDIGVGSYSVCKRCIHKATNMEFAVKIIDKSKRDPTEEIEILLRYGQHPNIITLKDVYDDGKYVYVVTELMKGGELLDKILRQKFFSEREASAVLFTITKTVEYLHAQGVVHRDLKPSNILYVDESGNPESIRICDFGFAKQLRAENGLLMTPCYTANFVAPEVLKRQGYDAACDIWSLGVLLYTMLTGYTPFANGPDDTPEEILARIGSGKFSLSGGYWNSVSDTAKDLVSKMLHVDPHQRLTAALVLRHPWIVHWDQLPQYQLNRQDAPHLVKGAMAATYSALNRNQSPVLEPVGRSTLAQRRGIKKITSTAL
Sequence of MAP3K4 (human) (Q9Y6R4 whole entry, looked up): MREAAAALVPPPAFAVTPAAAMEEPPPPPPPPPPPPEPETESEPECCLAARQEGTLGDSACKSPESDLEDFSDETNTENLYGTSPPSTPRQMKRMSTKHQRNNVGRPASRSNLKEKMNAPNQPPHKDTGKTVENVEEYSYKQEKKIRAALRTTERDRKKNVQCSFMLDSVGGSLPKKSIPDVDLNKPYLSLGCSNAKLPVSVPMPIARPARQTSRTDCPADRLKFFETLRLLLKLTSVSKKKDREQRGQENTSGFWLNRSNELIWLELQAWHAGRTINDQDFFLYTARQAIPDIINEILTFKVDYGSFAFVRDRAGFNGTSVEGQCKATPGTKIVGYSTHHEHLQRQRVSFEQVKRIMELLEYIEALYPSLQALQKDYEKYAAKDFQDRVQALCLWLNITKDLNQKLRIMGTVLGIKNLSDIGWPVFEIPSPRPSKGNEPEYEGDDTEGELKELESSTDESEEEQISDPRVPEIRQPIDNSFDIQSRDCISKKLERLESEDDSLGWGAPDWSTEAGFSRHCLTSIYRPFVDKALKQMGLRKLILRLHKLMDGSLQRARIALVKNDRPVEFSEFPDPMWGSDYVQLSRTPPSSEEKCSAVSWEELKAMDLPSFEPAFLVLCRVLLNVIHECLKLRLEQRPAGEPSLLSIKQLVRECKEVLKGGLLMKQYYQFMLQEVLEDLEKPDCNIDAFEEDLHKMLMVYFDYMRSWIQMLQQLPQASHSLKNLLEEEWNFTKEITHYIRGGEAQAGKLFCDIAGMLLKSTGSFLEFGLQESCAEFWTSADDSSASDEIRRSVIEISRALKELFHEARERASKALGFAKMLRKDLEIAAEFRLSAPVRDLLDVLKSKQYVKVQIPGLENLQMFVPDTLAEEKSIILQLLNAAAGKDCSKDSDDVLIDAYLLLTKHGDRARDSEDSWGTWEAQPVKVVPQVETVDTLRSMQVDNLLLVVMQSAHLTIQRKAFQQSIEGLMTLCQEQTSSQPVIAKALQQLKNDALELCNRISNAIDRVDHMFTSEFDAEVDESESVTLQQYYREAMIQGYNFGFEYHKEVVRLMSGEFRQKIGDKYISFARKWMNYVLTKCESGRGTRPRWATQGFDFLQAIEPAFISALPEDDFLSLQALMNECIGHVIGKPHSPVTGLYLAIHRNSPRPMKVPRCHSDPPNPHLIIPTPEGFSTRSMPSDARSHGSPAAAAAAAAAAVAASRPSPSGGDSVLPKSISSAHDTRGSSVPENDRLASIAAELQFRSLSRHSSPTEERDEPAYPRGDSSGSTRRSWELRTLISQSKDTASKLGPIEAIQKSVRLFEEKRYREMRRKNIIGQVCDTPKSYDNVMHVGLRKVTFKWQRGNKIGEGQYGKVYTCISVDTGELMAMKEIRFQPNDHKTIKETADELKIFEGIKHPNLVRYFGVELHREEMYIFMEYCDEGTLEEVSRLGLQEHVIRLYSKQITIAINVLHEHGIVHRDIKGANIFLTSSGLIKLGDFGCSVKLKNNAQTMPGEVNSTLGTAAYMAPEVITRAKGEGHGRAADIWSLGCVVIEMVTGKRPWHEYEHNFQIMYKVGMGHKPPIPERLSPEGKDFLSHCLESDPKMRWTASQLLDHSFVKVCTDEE
Sequence of PAK2 (human) (Q13177 whole entry, looked up): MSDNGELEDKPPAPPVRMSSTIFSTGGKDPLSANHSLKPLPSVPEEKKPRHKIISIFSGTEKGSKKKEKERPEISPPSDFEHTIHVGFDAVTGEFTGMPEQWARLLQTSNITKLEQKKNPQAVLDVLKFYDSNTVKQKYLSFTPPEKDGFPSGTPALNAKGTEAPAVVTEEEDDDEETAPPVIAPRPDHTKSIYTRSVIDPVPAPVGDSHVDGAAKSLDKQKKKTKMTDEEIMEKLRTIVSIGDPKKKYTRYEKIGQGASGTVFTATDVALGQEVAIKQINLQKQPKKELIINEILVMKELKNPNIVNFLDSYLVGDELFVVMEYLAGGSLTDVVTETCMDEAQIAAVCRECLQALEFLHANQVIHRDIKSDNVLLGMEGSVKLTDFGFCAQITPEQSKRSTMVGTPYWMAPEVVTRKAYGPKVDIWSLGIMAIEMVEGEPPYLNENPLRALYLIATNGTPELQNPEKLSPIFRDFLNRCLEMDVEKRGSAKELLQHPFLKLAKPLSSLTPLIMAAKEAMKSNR

## O=C(Nc1ccc(Oc2ncnc3[nH]ncc23)cc1)Nc1ccc(Cl)c(C(F)(F)F)c1
AKT2 (human)
  kinase still bound, per cent of control: 96%
[1]
  kinase still bound, per cent of control: 0.55%
BRSK1 (human)
  kinase still bound, per cent of control: 86%
CASK (human)
  kinase still bound, per cent of control: 20%
CDK7 (human)
  kinase still bound, per cent of control: 11%
CHUK (human)
  kinase still bound, per cent of control: 51%
CLK3 (human)
  kinase still bound, per cent of control: 65%
DMPK (human)
  kinase still bound, per cent of control: 100%
DYRK1B (human)
  kinase still bound, per cent of control: 96%
GRK1 (human)
  kinase still bound, per cent of control: 89%
IGF1R (human)
  kinase still bound, per cent of control: 100%
IKBKB (human)
  kinase still bound, per cent of control: 91%
INSR (human)
  kinase still bound, per cent of control: 84%
KDR (human)
  kinase still bound, per cent of control: 0%
[2]
  kinase still bound, per cent of control: 0.15%
LRRK2 (human)
  kinase still bound, per cent of control: 83%
MAP2K1 (human)
  kinase still bound, per cent of control: 76%
MAP3K13 (human)
  kinase still bound, per cent of control: 92%
MAP3K4 (human)
  kinase still bound, per cent of control: 87%
MAPK10 (human)
  kinase still bound, per cent of control: 74%
MAPK11 (human)
  kinase still bound, per cent of control: 1.2%
MARK3 (human)
  kinase still bound, per cent of control: 75%
MATK (human)
  kinase still bound, per cent of control: 100%
NEK1 (human)
  kinase still bound, per cent of control: 85%
PAK2 (human)
  kinase still bound, per cent of control: 97%
PDPK1 (human)
  kinase still bound, per cent of control: 89%
PIK3C2B (human)
  kinase still bound, per cent of control: 80%
PIK3CA (human)
  kinase still bound, per cent of control: 100%
PIM1 (human)
  kinase still bound, per cent of control: 90%
PIM2 (human)
  kinase still bound, per cent of control: 100%
PLK1 (human)
  kinase still bound, per cent of control: 100%
PRKACA (human)
  kinase still bound, per cent of control: 69%
RIOK2 (human)
  kinase still bound, per cent of control: 100%
RPS6KA3 KD1 (human)
  kinase still bound, per cent of control: 100%
RPS6KB1 (human)
  kinase still bound, per cent of control: 69%
SGK1 (human)
  kinase still bound, per cent of control: 88%
STK11 (human)
  kinase still bound, per cent of control: 97%
STK39 (human)
  kinase still bound, per cent of control: 72%
TEK (human)
  kinase still bound, per cent of control: 25%
TGFBR1 (human)
  kinase still bound, per cent of control: 93%
TSSK1B (human)
  kinase still bound, per cent of control: 86%
